According to ChEMBL document CHEMBL5055643, “Sophoraflavanone G Resensitizes ABCG2-Overexpressing Multidrug-Resistant Non-Small-Cell Lung Cancer Cells to Chemotherapeutic Drugs” (J Nat Prod, 2021):
Activity calls are given as the source filed them. The calls are words filed in the database; no cut-off is given here.

Columns and labels:
KB 3-1 [1] = experiment: Chemo-sensitizing activity against human KB 3-1 cells assessed as reversal fold at 5 uM measured after 72 hrs in presence of paclitaxel by CCK8 assay relative to control; type: functional
[2] = molecular target: T1, Broad substrate specificity ATP-binding cassette transporter ABCG2 (Homo sapiens, UniProt Q9UNQ0); experiment: Inhibition of ABCG2 in mitoxantrone-selected ABCG2-overexpressing human NCI-H460/MX20 cells assessed as increase in intracellular mitoxantrone accumulation incubated for 1 hr in presence of mitoxantrone by flow cytometry; type: cell-based
T1 sequence (Q9UNQ0 whole entry): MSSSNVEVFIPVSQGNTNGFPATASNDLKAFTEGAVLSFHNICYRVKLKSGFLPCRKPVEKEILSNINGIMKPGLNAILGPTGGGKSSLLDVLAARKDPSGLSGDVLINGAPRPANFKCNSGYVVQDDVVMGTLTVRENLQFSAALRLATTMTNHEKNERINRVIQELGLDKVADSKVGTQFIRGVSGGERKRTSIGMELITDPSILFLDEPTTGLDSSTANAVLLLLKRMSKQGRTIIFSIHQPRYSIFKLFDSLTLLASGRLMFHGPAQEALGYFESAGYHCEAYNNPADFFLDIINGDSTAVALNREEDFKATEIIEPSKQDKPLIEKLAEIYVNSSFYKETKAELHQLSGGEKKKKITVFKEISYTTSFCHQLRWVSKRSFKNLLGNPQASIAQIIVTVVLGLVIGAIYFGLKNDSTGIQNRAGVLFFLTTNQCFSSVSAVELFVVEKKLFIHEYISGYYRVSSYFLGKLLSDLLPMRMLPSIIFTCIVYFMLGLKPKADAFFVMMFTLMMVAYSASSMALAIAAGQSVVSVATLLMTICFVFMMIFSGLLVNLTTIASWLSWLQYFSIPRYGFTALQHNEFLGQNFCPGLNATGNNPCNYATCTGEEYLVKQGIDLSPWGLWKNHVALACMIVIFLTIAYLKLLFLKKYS

HEK293 [3] = experiment: Chemo-sensitizing activity against human HEK293 cells assessed as reversal fold at 1 uM measured after 72 hrs in presence of mitoxatrone by CCK8 assay relative to control; type: functional
HEK293 [4] = experiment: Chemo-sensitizing activity against ABCG2-overexpressing human HEK293/482R cells assessed as reversal fold at 2 uM measured after 72 hrs in presence of SN-38 by CCK8 assay relative to control; type: functional
HEK293 [5] = experiment: Chemo-sensitizing activity against human HEK293 cells assessed as reversal fold at 1 uM measured after 72 hrs in presence of vincristine by CCK8 assay relative to control; type: functional
A549 [6] = experiment: Chemo-sensitizing activity against becatecarin-selected ABCG2-overexpressing human A549/Bec150 cells assessed as reversal fold at 5 uM measured after 72 hrs in presence of SN-38 by CCK8 assay relative to control; type: functional
NCI-H460 [7] = experiment: Effect on ABCG2 protein expression in mitoxantrone-selected ABCG2-overexpressing human NCI-H460/MX20 cells at 1 to 5 uM incubated for 72 hrs by immunoblot analysis; type: functional, cell-based; settings: dose 1-5 µM
A549 [8] = experiment: Effect on ABCG2 protein expression in becatecarin-selected ABCG2-overexpressing human A549/Bec150 cells at 1 to 5 uM incubated for 72 hrs by immunoblot analysis; type: functional, cell-based; settings: dose 1-5 µM
A549 [9] = experiment: Chemo-sensitizing activity against human A549 cells assessed as reversal fold at 5 uM measured after 72 hrs in presence of SN-38 by CCK8 assay relative to control; type: functional
[10] = Cytotoxicity against human A549 cells assessed as cell viability at 1 to 5 uM measured after 72 hrs by CCK8 assay; type: cell-based; settings: dose 1-5 µM, read-out: Activity
NCI-H460 [11] = experiment: Chemo-sensitizing activity against human NCI-H460 cells assessed as reversal fold at 1 uM measured after 72 hrs in presence of SN-38 by CCK8 assay relative to control; type: functional
HEK293 [12] = experiment: Chemo-sensitizing activity against human HEK293 cells assessed as reversal fold at 5 uM measured after 72 hrs in presence of SN-38 by CCK8 assay relative to control; type: functional
A549 [13] = experiment: Cytotoxicity against human A549 cells assessed as reduction in cell viability measured after 72 hrs by CCK8 assay; type: cell-based; settings: A549, 72 h
NCI-H460 [14] = experiment: Cytotoxicity against human NCI-H460 cells assessed as reduction in cell viability measured after 72 hrs by CCK8 assay; type: cell-based; settings: NCI-H460, 72 h
NCI/ADR-RES [15] = experiment: Chemo-sensitizing activity against ABCB1-overexpressing human NCI/ADR-RES cells assessed as reversal fold at 2 uM measured after 72 hrs in presence of colchicine by CCK8 assay relative to control; type: functional
KB-V1 [16] = experiment: Chemo-sensitizing activity against ABCB1-overexpressing human KB-V1 cells assessed as reversal fold at 5 uM measured after 72 hrs in presence of vincristine by CCK8 assay relative to control; type: functional
KB 3-1 [17] = experiment: Chemo-sensitizing activity against human KB 3-1 cells assessed as reversal fold at 1 uM measured after 72 hrs in presence of vincristine by CCK8 assay relative to control; type: functional
OVCAR-8 = experiment: Chemo-sensitizing activity against human OVCAR-8 cells assessed as reversal fold at 1 uM measured after 72 hrs in presence of vincristine by CCK8 assay relative to control; type: functional
KB-V1 [18] = experiment: Chemo-sensitizing activity against ABCB1-overexpressing human KB-V1 cells assessed as reversal fold at 1 uM measured after 72 hrs in presence of paclitaxel by CCK8 assay relative to control; type: functional
NCI/ADR-RES [19] = experiment: Chemo-sensitizing activity against ABCB1-overexpressing human NCI/ADR-RES cells assessed as reversal fold at 5 uM measured after 72 hrs in presence of paclitaxel by CCK8 assay relative to control; type: functional
HEK293 [20] = experiment: Chemo-sensitizing activity against human HEK293 cells assessed as reversal fold at 2 uM measured after 72 hrs in presence of topotecan by CCK8 assay relative to control; type: functional
A549 [21] = experiment: Chemo-sensitizing activity against becatecarin-selected ABCG2-overexpressing human A549/Bec150 cells assessed as reversal fold at 1 uM measured after 72 hrs in presence of topotecan by CCK8 assay relative to control; type: functional
KB-V1 [22] = experiment: Chemo-sensitizing activity against ABCB1-overexpressing human KB-V1 cells assessed as reversal fold at 1 uM measured after 72 hrs in presence of vincristine by CCK8 assay relative to control; type: functional
[23] = Cytotoxicity against becatecarin-selected ABCG2-overexpressing human A549/Bec150 cells assessed as cell viability at 1 to 5 uM measured after 72 hrs by CCK8 assay; type: ADME, cell-based; settings: dose 1-5 µM, read-out: Activity
[24] = Cytotoxicity against mitoxantrone-selected ABCG2-overexpressing human NCI-H460/MX20 cells assessed as cell viability at 1 to 5 uM measured after 72 hrs by CCK8 assay; type: ADME, cell-based; settings: dose 1-5 µM, read-out: Activity
A549 [25] = experiment: Chemo-sensitizing activity against human A549 cells assessed as reversal fold at 2 uM measured after 72 hrs in presence of topotecan by CCK8 assay relative to control; type: functional
HEK293 [26] = experiment: Chemo-sensitizing activity against human HEK293 cells assessed as reversal fold at 1 uM measured after 72 hrs in presence of colchicine by CCK8 assay relative to control; type: functional

For `C=C(C)[C@H](CC=C(C)C)Cc1c(O)cc(O)c2c1O[C@H](c1ccc(O)cc1O)CC2=O` [SOPHORAFLAVANONE G], the “fold change (FC)” value (KB 3-1 [1]) was 1.1, the IC50 [2] was 2.12 µM and the “inhibition (INH)” value ([2]; human, nci-h460, 1 h, time 1 hrs) was “Dose-dependent effect”. The “fold change (FC)” value (HEK293 [3]) was 1, the “fold change (FC)” value (HEK293 [4]) was 2.4 and the “fold change (FC)” value (HEK293 [5]) was 1. The “fold change (FC)” value (A549 [6]) was 7.7, the Activity (NCI-H460 [7]) was “inactive” and the Activity (A549 [8]) was “inactive”. The “fold change (FC)” value (A549 [9]) was 1.2, the viability at 72 h, up to 5 µM [10] was > 90% and the “fold change (FC)” value (NCI-H460 [11]) was 1.3. For the same molecule, the “fold change (FC)” value (HEK293 [12]) was 1, the IC50 (A549 [13]) was 26.2 µM and the IC50 (NCI-H460 [14]) was 29.3 µM. The “fold change (FC)” value (NCI/ADR-RES [15]) was 0.8, the “fold change (FC)” value (KB-V1 [16]) was 1.3 and the “fold change (FC)” value (KB 3-1 [17]) was 1.1. For the same molecule, the “fold change (FC)” value (OVCAR-8) was 1, the “fold change (FC)” value (KB-V1 [18]) was 0.9 and the “fold change (FC)” value (NCI/ADR-RES [19]) was 1.4. The “fold change (FC)” value (HEK293 [20]) was 0.9, the “fold change (FC)” value (A549 [21]) was 1.7 and the “fold change (FC)” value (KB-V1 [22]) was 1. The viability at 72 h, up to 5 µM [23] was > 90%, the viability at 72 h, 5 µM [24] was > 90% and the “fold change (FC)” value (A549 [25]) was 1.2. The “fold change (FC)” value (HEK293 [26]) was 1.
